According to publication PMC8896685 (PLoS ONE, 2022):
Numbered stars: 1 amine (or outer) side, 2 acyl side, 3 side chain; on linkers, the order of the positions; unused ones are H or OH. Square brackets hold non-standard residues; d marks the D form. Side chains are listed from the residue outwards. Peptide text beside a SMILES is read from it. * marks the point of attachment. C18 diacid = O=C(O)CCCCCCCCCCCCCCCCC(=O)*; γGlu = O=C(O)[C@H](CCC(=O)[*:2])N[*:1]; AEEA = NCCOCCOCC(=O)O; Aib = CC(C)(N)C(=O)O

How the values were obtained:
in vivo = settings: rat, iv
Experimental: Compound exposure was measured by Luminescence Oxygen Channeling Immunoassay (LOCI). […] The three reactants were combined with the analyte and formed a two-sited immuno-complex. Illumination of the complex released singlet oxygen […] from the donor beads. They were channeled into the acceptor beads and triggered a chemiluminescence response which was measured in an EnVision plate reader (PerkinElmer). The amount of light was proportional to the concentration of the analyte. As calibrators, a dilution line of the relevant analyte in rat/mouse plasma was included.
At t=0, 5 min, 10 min, 30 min, 2 h, 4 h, 8 h, 12 h, 24 h, 32 h, 48 h, 56 h, and 72 h post dosing, plasma was sampled from the sublingual plexus for analysis of plasma exposure measured by LOCI.
Plasma concentration-time profiles were analysed using non-compartmental analysis (NCA) using Phoenix WinNonlin Professional 6.3 (Pharsight, Mountain View, CA, US). Calculations were performed using full concentration-time profile values or sparse sampling concentration-time values as appropriate.

DIO rats = assay: Subchronic effect on body weight, body composition and food intake in DIO rats; assay type: in vivo, rat; settings: three weeks; for Weight loss: 3 nmol/kg each compound s.c. once daily; for Cumulative food intake: 3 nmol/kg s.c. once daily
Source text: Male C57Bl/6J mice were purchased from Jackson Lab (Bar Harbour, ME) or Taconic, (Denmark). Male Sprague Dawley rats were purchased from Taconic (Denmark). Lean animals were fed regular chow diet (Altromin 1324, Brogaarden, Denmark). Obese animals were fed a high-fat diet, 45% kcal from fat (D12492, Research Diets, New Brunswick, NJ) from the age of 4–6 weeks in order to obtain a diet induced obese (DIO) phenotype. Animals were housed under temperature and humidity-controlled conditions in a 12:12 hr light:dark cycle (lights on at 6 a.m.). Rats were housed three per cage during high fat feeding and were single housed five weeks prior to study. Mice were single housed, two per cage, with a partitioning wall where possible. All animals had ad libitum access to diet and water, except when fasted prior to experimental procedures. Animals were acclimatized to study conditions (energy expenditure cages, daily mock handling etc) at least one week prior to first dose. […] At the time of study, animals were 20–30 weeks old with a body weight of 45–50 g (DIO mice) or approximately 600 g (DIO rats). […] Oral glucose tolerance was evaluated on study day 15, 5 h post-dosing (at Cmax). Animals were fasted for 5 h prior to oral administration of glucose (3 g/kg). […] Conscious animals were MR-scanned prior to initiation of treatment and at the end of the treatment period.

Human GCGR = biological target: T1, Human GCGR (Homo sapiens, UniProt P47871); assay: Receptor binding, SPA competitive binding assay; settings: SPA competitive binding on BHK cell membranes, [125I]-glucagon tracer, 1% species specific plasma, 2 h 30°C; value (95% CI)
T1 construct: a plasmid encoding either the glucagon receptor or the GLP-1 receptor from the relevant species; expressed in transfected cells
Experimental: (§1) The binding assay was performed on cell membranes in the presence of 1% (v/v) species-specific heparin-treated pooled plasma (Bioreclamation IVT, Westbury, NY) diluted in assay buffer (50 mM HEPES supplemented with 5 mM EGTA, 5 mM MgCl2, and 0.005% (v/v) Tween 20, pH7.4). […] Cells stably expressing an individual receptor of interest were grown at 5% CO2, 37°C in DMEM (supplemented with 10% FCS, 0.5 mg/ml G418 and 0.3 mg/ml hygromycin). Membrane preparations were made from cells harvested at approximately 80% confluence, washed and homogenized in 20 mM HEPES with 0.1 mM EDTA, pH 7.4. Protein concentration was determined, and the membranes were stored at -80°C until use. The membrane binding assay was performed in a 96-well OptiPlate (PerkinElmer) in a total volume of 200 μl. Test compounds were dissolved in 80% DMSO and further diluted in assay buffer. 50 μl of diluted plasma was added to the assay plate wells followed by addition of test compounds (25 μl), cell membranes (50 μl, 0.06 mg/ml), SPA beads (20 mg/ml in assay buffer) and radioligand (60,000 cpm/well, corresponding to 0.06 nM; 2200 Ci/mmol. Each assay plate was incubated for 2 h at 30°C, centrifuged at 1500 rpm for 10 minutes and counted in a TopCount NXT instrument (PerkinElmer).
(§2) For the receptor binding assays, logIC50 values were calculated using non-linear regression analysis. The error estimation was reported as the 95% confidence interval. […] The calculations were performed in GraphPad Prism 6.4 (GraphPad, San Diego, CA) and error estimation was expressed as the 95% confidence interval. […] Averages, error estimation, ratios and plasma shifts were all calculated on logIC50 or logEC50 values and transformed to the anti-log values for reporting purposes.

Human GLP-1R = Human GLP-1R (Homo sapiens, UniProt P43220); assay: Receptor binding, SPA competitive binding assay
Experimental: as §1, §2

Rat GLP-1R = biological target: T2, Rat GLP-1R (Rattus norvegicus, UniProt P32301); assay: Receptor binding, SPA competitive binding assay; settings: SPA competitive binding on BHK cell membranes, [125I]-GLP-1(7–36)-NH2 tracer, 1% species specific plasma, 2 h 30°C; value (95% CI)
T2 construct: a plasmid encoding either the glucagon receptor or the GLP-1 receptor from the relevant species; expressed in transfected cells
T2 sequence (P32301 22-463): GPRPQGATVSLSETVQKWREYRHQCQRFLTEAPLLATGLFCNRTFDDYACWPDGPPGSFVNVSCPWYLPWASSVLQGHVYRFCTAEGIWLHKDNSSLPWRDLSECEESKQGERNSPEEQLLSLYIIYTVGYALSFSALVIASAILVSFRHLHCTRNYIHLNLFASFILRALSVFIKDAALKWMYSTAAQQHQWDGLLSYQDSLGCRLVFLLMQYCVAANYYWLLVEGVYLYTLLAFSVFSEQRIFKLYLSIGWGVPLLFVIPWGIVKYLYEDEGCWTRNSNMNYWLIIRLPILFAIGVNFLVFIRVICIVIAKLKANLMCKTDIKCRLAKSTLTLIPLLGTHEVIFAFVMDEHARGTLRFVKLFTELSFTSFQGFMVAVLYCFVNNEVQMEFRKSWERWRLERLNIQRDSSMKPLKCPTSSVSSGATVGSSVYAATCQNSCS
Experimental: as §1, §2

Mouse GLP-1R = biological target: T3, Mouse GLP-1R (Mus musculus, UniProt O35659); assay: Receptor binding, SPA competitive binding assay; settings: SPA competitive binding on BHK cell membranes, [125I]-GLP-1(7–36)-NH2 tracer, 1% species specific plasma, 2 h 30°C; value (95% CI)
T3 construct: a plasmid encoding either the glucagon receptor or the GLP-1 receptor from the relevant species; expressed in transfected cells
T3 sequence (O35659 22-463): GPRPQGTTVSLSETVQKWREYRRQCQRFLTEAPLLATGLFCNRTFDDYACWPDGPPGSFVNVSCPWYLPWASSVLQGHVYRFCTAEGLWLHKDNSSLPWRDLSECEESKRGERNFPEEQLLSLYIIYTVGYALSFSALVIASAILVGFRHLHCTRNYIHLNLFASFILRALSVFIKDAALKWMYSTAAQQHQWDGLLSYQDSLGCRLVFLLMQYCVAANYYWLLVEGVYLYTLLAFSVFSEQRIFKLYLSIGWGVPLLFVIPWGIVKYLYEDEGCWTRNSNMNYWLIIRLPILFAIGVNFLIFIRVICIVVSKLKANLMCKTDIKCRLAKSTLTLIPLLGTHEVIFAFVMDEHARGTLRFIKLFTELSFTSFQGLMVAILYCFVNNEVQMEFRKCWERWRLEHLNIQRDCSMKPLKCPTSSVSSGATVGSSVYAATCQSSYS
Experimental: as §1, §2

Human GLP-1R, sequence (P43220 24-463): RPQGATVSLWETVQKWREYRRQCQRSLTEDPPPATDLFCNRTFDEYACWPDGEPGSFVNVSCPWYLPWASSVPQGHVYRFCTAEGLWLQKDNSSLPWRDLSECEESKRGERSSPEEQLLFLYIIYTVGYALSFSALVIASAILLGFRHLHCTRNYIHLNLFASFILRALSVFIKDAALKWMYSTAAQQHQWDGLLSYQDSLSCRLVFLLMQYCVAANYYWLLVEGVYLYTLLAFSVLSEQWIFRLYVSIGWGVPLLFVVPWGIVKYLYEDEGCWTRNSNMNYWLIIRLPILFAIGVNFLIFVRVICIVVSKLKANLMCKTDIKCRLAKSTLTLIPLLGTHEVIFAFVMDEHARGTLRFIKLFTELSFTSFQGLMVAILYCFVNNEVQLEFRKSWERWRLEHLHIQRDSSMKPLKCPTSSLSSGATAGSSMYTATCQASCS
T1 sequence (P47871 26-477): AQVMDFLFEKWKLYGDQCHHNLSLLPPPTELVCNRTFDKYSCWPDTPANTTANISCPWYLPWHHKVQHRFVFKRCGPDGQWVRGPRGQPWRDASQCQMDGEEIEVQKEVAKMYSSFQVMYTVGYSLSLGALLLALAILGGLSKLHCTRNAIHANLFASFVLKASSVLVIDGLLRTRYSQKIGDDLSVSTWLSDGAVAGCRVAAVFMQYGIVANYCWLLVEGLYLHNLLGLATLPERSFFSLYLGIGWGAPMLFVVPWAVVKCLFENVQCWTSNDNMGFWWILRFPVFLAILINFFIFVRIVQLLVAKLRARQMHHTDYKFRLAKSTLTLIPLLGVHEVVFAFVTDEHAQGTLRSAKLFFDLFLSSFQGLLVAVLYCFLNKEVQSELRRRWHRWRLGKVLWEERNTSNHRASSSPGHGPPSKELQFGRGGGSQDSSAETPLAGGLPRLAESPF

SMILES | half-life (in vivo) [min] | Weight loss (DIO rats) [%] | Cumulative food intake (DIO rats) | IC50 (Human GCGR) [nM] | IC50 (Human GLP-1R; SPA competitive binding on BHK cell membranes, [125I]-GLP-1(7–36)-NH2 tracer, 1% species specific plasma, 2 h 30°C, value (95% CI)) [nM] | Binding affinity to GLP-1 receptors relative to glucagon receptors (Human GLP-1R; across human, mouse and rat receptor binding assays, 1% plasma) | IC50 (Rat GLP-1R) [nM] | IC50 (Mouse GLP-1R) [nM]
CC(C)C[C@H](NC(=O)[C@H](Cc1ccc(O)cc1)NC(=O)[C@H](CCCCN)NC(=O)[C@H](CO)NC(=O)[C@H](CC(C)C)NC(=O)[C@H](CC(=O)O)NC(=O)[C@H](CO)NC(=O)[C@@H](NC(=O)[C@H](Cc1ccccc1)NC(=O)[C@@H](NC(=O)CNC(=O)[C@H](CCC(N)=O)NC(=O)C(C)(C)NC(=O)[C@@H](N)Cc1c[nH]cn1)[C@@H](C)O)[C@@H](C)O)C(=O)N[C@@H](CCC(=O)O)C(=O)N[C@@H](CO)C(=O)N[C@@H](CCCCN)C(=O)N[C@@H](CCCNC(=N)N)C(=O)N[C@@H](C)C(=O)N[C@@H](CCCNC(=N)N)C(=O)N[C@@H](CCC(=O)O)C(=O)N[C@@H](Cc1ccccc1)C(=O)N[C@H](C(=O)N[C@@H](CCC(N)=O)C(=O)N[C@@H](Cc1c[nH]c2ccccc12)C(=O)N[C@@H](CC(C)C)C(=O)N[C@@H](CC(C)C)C(=O)N[C@@H](CCCCNC(=O)CC[C@H](NC(=O)CC[C@H](NC(=O)[C@H](CO)NC(=O)[C@H](CCC(=O)O)NC(=O)[C@H](CO)NC(=O)CC[C@H](NC(=O)CC[C@H](NC(=O)CCCCCCCCCCCCCCCCC(=O)O)C(=O)O)C(=O)O)C(=O)O)C(=O)O)C(=O)N[C@H](C(N)=O)[C@@H](C)O)C(C)C [NN1177] (H-H[Aib]QGTFTSDLSKYLESKRAREFVQWLLK([γGlu-γGlu-Ser-Glu-Ser-γGlu-γGlu-C18 diacid])T-NH2) | 480 | 20 | equal reduction | 2.54 | 0.64 | two-to four-fold | 0.17 | 0.11
CC(C)C[C@H](NC(=O)[C@H](CC(C)C)NC(=O)[C@H](Cc1c[nH]c2ccccc12)NC(=O)[C@H](CCC(N)=O)NC(=O)[C@@H](NC(=O)[C@H](Cc1ccccc1)NC(=O)[C@H](CCC(=O)O)NC(=O)[C@H](CCCNC(=N)N)NC(=O)[C@H](C)NC(=O)[C@H](C)NC(=O)[C@H](CCCNC(=N)N)NC(=O)[C@H](CO)NC(=O)[C@H](CC(=O)O)NC(=O)[C@H](CC(C)C)NC(=O)[C@H](Cc1ccc(O)cc1)NC(=O)[C@H](CCCCN)NC(=O)[C@H](CO)NC(=O)[C@H](CC(C)C)NC(=O)[C@H](CC(=O)O)NC(=O)[C@H](CO)NC(=O)[C@@H](NC(=O)[C@H](Cc1ccccc1)NC(=O)[C@@H](NC(=O)CNC(=O)[C@H](CCC(=O)O)NC(=O)C(C)(C)NC(=O)[C@@H](N)Cc1c[nH]cn1)[C@@H](C)O)[C@@H](C)O)C(C)C)C(=O)N[C@@H](CC(N)=O)C(=O)N[C@@H](CCCCNC(=O)CC[C@H](NC(=O)CC[C@H](NC(=O)COCCOCCNC(=O)COCCOCCNC(=O)CC[C@H](NC(=O)CCCCCCCCCCCCCCCCC(=O)O)C(=O)O)C(=O)O)C(=O)O)C(N)=O [GLP-1 reference] (H-H[Aib]EGTFTSDLSKYLDSRAAREFVQWLLNK([γGlu-γGlu-AEEA-AEEA-γGlu-C18 diacid])-NH2) | – | 5 | equal reduction | – | – | – | – | –
